# Laboratory results taken from US20120214818A1, “METHODS OF TREATING DIASTOLIC DYSFUNCTION AND RELATED CONDITIONS” (THE BOARD OF TRUSTEES OF THE UNIVERSITY OF ILLINOIS, priority 2009, published 2012).
# Several values for one entry are separate records, joined by “and”; a condition that tells them apart may be missing. Equal entries are not always repeated.
# Tested on: myofilaments of skinned left ventricular papillary fiber bundles
# Assay: Ca2+-sensitivity of tension in skinned fiber bundles (first series, pCa-tension)
# Assay type: biochemical, mouse
# Details: for myofilament Ca2+ sensitivity: DOCA-salt fibers/myocytes treated with ranolazine
# Method: Ca^2+-sensitivity of tension in skinned fibers: Myofilament response to Ca^2+ was measured as essentially described in Reference 24. Left ventricular papillary muscles were dissected from mouse hearts and placed in 4° C. high relaxing solution (HR), which contained 10.00 mM EGTA, 41.89 mM K-Prop, 6.57 mM MgCl2, 100.00 mM 2-[bis(2-hydroxyethyl)amino]ethanesulfonic acid (BES), 6.22 mM Na-ATP, 10.00 mM CrP, 5.00 mM Na-azide, 2.5 μg/mL Pepstatin, 1 μg/mL Leupeptin, and 50 μM PMSF, pH 7.0. The muscles were then dissected further under the microscope into uniform thin bundles of about 3-5 mm in length and 150-250 μm in diameter. The fiber bundles were placed then into a skinning solution of HR that contained 1% triton for 1-2 h at 4° C. The skinned fiber bundles were mounted with cellulose acetate glue in a force measuring apparatus and sarcomere length was adjusted to 2.2 μm using a laser diffraction pattern and width and thickness were determined for calculation of cross-sectional area. The fiber bundles were incubated in ranolazine or vehicle for 15 minutes, and then were activated at 22° C. over a series of pCa (−log of the M Ca^2+ concentration) values between pCa 8.00 and pCa 4.5. Activating solutions were prepared by mixing HR with a pCa 4.50 solution of 10.00 mM EGTA, 9.99 mM CaCl2, 22.16 mM K-Prop (K-Prop stock had 1.00 M propionic acid and 1.00 M KOH), 6.20 mM MgCl2, 100.00 mM BES, 6.29 mM Na-ATP, 10.00 mM creatine phosphate (CrP), 5.00 mM Na-azide, 2.5 μg/mL pepstatin, 1 μg/mL leupeptin, and 50 μM PMSF, pH 7.0. HR and pCa 8.00-pCa 4.50 solutions had one unit of creatine phosphokinase per 200 μL of solution. Tension generated was computed from the force/cross-sectional area and data were analyzed in the Graphpad Prism software and fit into a sigmoidal modified Hill equation in order to generate tension-pCa curves, Hill coefficients, and pCa50 (pCa value at half-maximum tension).
# We measured myofilament response to Ca^2+ under two experimental conditions as described in detail below. In a first series of experiments the skinned fiber bundles were mounted in a force measuring apparatus and sarcomere length (SL) was adjusted to 2.2 μm using a laser diffraction pattern and width and thickness were determined for calculation of cross-sectional area. Force was measured over a range of pCa values Skinned fiber bundles were treated with 10 μmol/L ranolazine for 15 min prior to evaluation. In a second series of experiments under different experimental conditions, we determined steady-state Mg-ATPase activity, while simultaneously measuring isometric tension in skinned fiber bundles as a function of pCa. In all experiments, skinned fibers were treated with ranolazine or DMSO vehicle for 15 min prior to beginning either tension or tension/ATPase rate measurements. Tension generated was computed from the force/cross-sectional area and data were analyzed in the GraphPad Prism software and fit with a sigmoidal modified Hill equation in order to generate tension-pCa curves, Hill coefficients, and pCa50 (pCa value at half-maximum tension). We also determined cross-bridge kinetics employing a quick release/restretch protocol. The rate constant for force redevelopment, Ktr, provides a measure of the rate of cross-bridge entry into the force generating state. In all experiments, only fiber bundles retaining more than 80% of their initial maximum tension were included in the analysis. […]
smiles,measurement,setting,value
COc1ccccc1OCC(O)CN1CCN(CC(=O)Nc2c(C)cccc2C)CC1 (centres unmarked) [ranolazine],Maximum Tension,DOCA-salt fibers treated with ranolazine (FIG. 11),36.03±1.50 mN/mm^2
same,myofilament Ca2+ sensitivity,,returned the DOCA-salt myofilament sensitivity to levels similar to sham fibers
same,myofilament Ca2+ sensitivity,listed as Ranolazine,returned DOCA-salt myofilament sensitivity to levels similar to sham myocytes
same,Hill n,"fibers from DOCA mice treated with 10 μmol/L ranolazine 15 min, listed as ranalozine",3.71+/−1.0 and 3.71±1.0
same,pCa50 (pCa-tension relations normalized to maximum tension),"fibers from DOCA mice treated with 10 μmol/L ranolazine 15 min, sarcomere length 2.2 μm, 22° C., listed as ranalozine",6.0+/−0.03 and 6.0±0.03
